Patent publication US11680056B2, “MK2 inhibitors and uses thereof” (Xinthera, Inc., priority 2021, dated 2023)
Like-named read-outs stand apart in the source and are kept apart here.

Experiments:
p38a/MK2 = p38a/MK2 (Homo sapiens (Human), UniProt P49137+Q16539); experiment: p38a/MK2 biochemical assay: activation of MK2 by p38, FITC-HSP27 peptide phosphorylation (IMAP FP); conditions: 10-point 1:3 dilution, 60 pM active p38a, 1 nM inactive MK2, 10 μM ATP, 2 h incubation
p38a/PRAK = p38a/PRAK (Homo sapiens (Human), UniProt Q16539); experiment: p38a/PRAK biochemical assay: activation of PRAK by p38, FITC-HSP27 peptide phosphorylation (IMAP FP); conditions: 10-point 1:3 dilution, top dose 300 μM, 60 pM active p38a, 1 nM inactive PRAK, 10 μM ATP, 2 h incubation; for IC50: read-out: p38a/PRAK Enzyme pIC50 (converted)
p38a/PRAK, sequence (Q16539 whole entry): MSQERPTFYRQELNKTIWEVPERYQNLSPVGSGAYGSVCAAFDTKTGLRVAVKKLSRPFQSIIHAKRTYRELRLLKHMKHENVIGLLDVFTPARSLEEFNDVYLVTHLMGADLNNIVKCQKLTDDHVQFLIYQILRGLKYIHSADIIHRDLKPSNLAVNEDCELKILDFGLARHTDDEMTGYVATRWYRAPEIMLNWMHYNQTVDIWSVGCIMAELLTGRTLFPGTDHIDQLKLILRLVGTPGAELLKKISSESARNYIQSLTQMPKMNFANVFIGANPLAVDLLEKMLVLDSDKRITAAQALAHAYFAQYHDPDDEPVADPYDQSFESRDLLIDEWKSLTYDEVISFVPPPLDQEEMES
Outline: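 GST-tagged MK2 (F46–H400) and PRAK (M1–Q471), expressed in E. coli, activated by p38 and phosphorylate FITC-HSP27 peptide over 2 h with compound; readout by IMAP fluorescence polarisation (ex 485/em 528 nm). Ten-point 1:3 dilutions, top dose 1 μM for MK2 and 300 μM for PRAK. IC50 after vehicle normalisation; selectivity = IC50(PRAK)/IC50(MK2).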

[1] = top dose 1 μM, read-out: p38a/MK2 (1 μM) Enzyme pIC50 (converted)
[2] = top dose 10 μM, read-out: p38a/MK2 (10 μM) Enzyme pIC50 (converted)

p38a/MK2, sequence (P49137 46-400): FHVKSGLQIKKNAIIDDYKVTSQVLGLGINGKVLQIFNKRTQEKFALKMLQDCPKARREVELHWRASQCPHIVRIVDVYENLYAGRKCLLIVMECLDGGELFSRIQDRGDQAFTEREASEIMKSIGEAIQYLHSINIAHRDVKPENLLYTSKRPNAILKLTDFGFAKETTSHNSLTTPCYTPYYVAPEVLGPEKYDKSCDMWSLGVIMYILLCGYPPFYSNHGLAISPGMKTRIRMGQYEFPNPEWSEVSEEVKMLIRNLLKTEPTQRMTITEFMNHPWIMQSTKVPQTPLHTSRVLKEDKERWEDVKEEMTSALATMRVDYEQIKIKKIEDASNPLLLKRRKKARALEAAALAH
p38a/MK2, sequence (Q16539 whole entry): as the sequence (Q16539 whole entry) above

`Cc1ncc(-c2ccnc(C(C)(C)O)n2)cc1-n1c(C)cc(OCc2ncc(F)cc2F)c(Cl)c1=O` (single isomer, unassigned) [Example 45A, rel-3-chloro-4-[(3,5-difluoropyridin-2-yl)methoxy]-5′-[2-(2-hydroxypropan-2-yl)pyrimidin-4-yl]-2′,6-dimethyl-[1,3′-bipyridin]-2-one] was tested, and the IC50 (p38a/MK2; [1]) was over 1000 nM and the IC50 (p38a/PRAK) was over 316000 nM.

`Cc1cnc(-c2ccnc(C3(O)CC3)n2)cc1-n1c(C)cc(OCc2ncc(F)cc2F)c(Cl)c1=O` (atropisomer, axis not shown) [Example 3, 3-chloro-4-[(3,5-difluoropyridin-2-yl)methoxy]-2′-[2-(1-hydroxycyclopropyl)pyrimidin-4-yl]-5′,6-dimethyl-[1,4′-bipyridin]-2-one] gave an IC50 (p38a/MK2; [2]) of 20 nM and an IC50 (p38a/PRAK) of 5010 nM.

Molecule `[2H]C([2H])(Oc1cc(C)n(-c2c(C)cnc(-c3ccnc(C(C)(C)O)c3F)c2F)c(=O)c1Cl)c1ncc(F)cc1F` (single isomer, unassigned) [Example 65B, rel-3-chloro-1-[3,3′-difluoro-2′-(2-hydroxypropan-2-yl)-5-methyl-[2,4′-bipyridin]-4-yl]-4-[(3,5-difluoropyridin-2-yl)(2H2)methoxy]-6-methylpyridin-2-one] has an IC50 (p38a/MK2; [1]) of over 100 nM and an IC50 (p38a/PRAK) of 79400 nM.

`[2H]C([2H])(Oc1cc(C)n(-c2cc(-c3ccnc(C(C)(C)O)c3F)ncc2C)c(=O)c1Cl)c1ncc(F)cc1F` (single isomer, unassigned) [Example 64A, rel-3-chloro-4-[(3,5-difluoropyridin-2-yl)(2H2)methoxy]-1-[3′-fluoro-2′-(2-hydroxypropan-2-yl)-5-methyl-[2,4′-bipyridin]-4-yl]-6-methylpyridin-2-one] was tested, and the IC50 (p38a/MK2; [1]) was 2 nM and the IC50 (p38a/PRAK) was 2000 nM.

`Cc1cnc(-c2cncc(C(C)(C)O)n2)cc1-n1c(C)cc(OCc2ncc(F)cc2F)c(Cl)c1=O` (single isomer, unassigned) [Example 51B, rel-3-chloro-4-[(3,5-difluoropyridin-2-yl)methoxy]-2′-[6-(2-hydroxypropan-2-yl)pyrazin-2-yl]-5′,6-dimethyl-[1,4′-bipyridin]-2-one] gave an IC50 (p38a/MK2; [1]) of over 1000 nM and an IC50 (p38a/PRAK) of over 316000 nM.

With `[2H]C([2H])(Oc1cc(C)n(-c2c(C)cnc(-n3ccc(C(C)(C)O)n3)c2F)c(=O)c1Cl)c1ncc(F)cc1F` [Example 58A, rel-3-chloro-4-[(3,5-difluoropyridin-2-yl)(2H2)methoxy]-3′-fluoro-2′-[3-(2-hydroxypropan-2-yl)pyrazol-1-yl]-5′,6-dimethyl-[1,4′-bipyridin]-2-one] the IC50 (p38a/MK2; [1]) was 1.26 nM and the IC50 (p38a/PRAK) was 1000 nM.

With `Cc1sc(-c2ccnc(C(C)(C)O)n2)nc1-n1c(C)cc(OCc2ncc(F)cc2F)c(Cl)c1=O` [Example 17, 3-chloro-4-[(3,5-difluoropyridin-2-yl)methoxy]-1-{2-[2-(2-hydroxypropan-2-yl)pyrimidin-4-yl]-5-methyl-1,3-thiazol-4-yl}-6-methylpyridin-2-one] the IC50 (p38a/MK2; [2]) was 2510 nM and the IC50 (p38a/PRAK) was 39800 nM.

In the case of `[2H]C([2H])(Oc1cc(C)n(-c2c(C)cnc(-c3ccnc(C(C)(C)CO)n3)c2F)c(=O)c1Cl)c1ncc(F)cc1F` (single isomer, unassigned) [Example 59B, rel-3-chloro-4-((3,5-difluoropyridin-2-yl)methoxy-d2)-3′-fluoro-2′-(2-(1-hydroxy-2-methylpropan-2-yl)pyrimidin-4-yl)-5′,6-dimethyl-2H-[1,4′-bipyridin]-2-one], the IC50 (p38a/MK2; [1]) was 1 nM and the IC50 (p38a/PRAK) was 316 nM.

With `CCc1cnc(-c2ccnc(C(C)(C)O)n2)cc1-n1c(C)cc(OCc2ncc(F)cc2F)c(Cl)c1=O` (single isomer, unassigned) [Example 29B, rel-3-chloro-4-((3,5-difluoropyridin-2-yl)methoxy)-5′-ethyl-2′-(2-(2-hydroxypropan-2-yl)pyrimidin-4-yl)-6-methyl-2H-[1,4′-bipyridin]-2-one] the IC50 (p38a/MK2; [2]) was over 10000 nM and the IC50 (p38a/PRAK) was over 316000 nM.

Work on `Cc1cc(COc2cc(C)n(-c3cc(-c4ccnc(C(C)(C)O)n4)ncc3C)c(=O)c2Cl)ncc1F` (single isomer, unassigned) [Example 22A, rel-3-chloro-4-[(5-fluoro-4-methylpyridin-2-yl)methoxy]-2′-[2-(2-hydroxypropan-2-yl)pyrimidin-4-yl]-5′,6-dimethyl-[1,4′-bipyridin]-2-one] yielded an IC50 (p38a/MK2; [2]) of 31.6 nM and an IC50 (p38a/PRAK) of 15800 nM.

`Cc1cnc(-n2ccc(CC(C)(C)O)n2)cc1-n1c(C)cc(OCc2ncc(F)cc2F)c(Cl)c1=O` (single isomer, unassigned) [Example 46A, rel-3-chloro-4-[(3,5-difluoropyridin-2-yl)methoxy]-2′-[3-(2-hydroxy-2-methylpropyl)pyrazol-1-yl]-5′,6-dimethyl-[1,4′-bipyridin]-2-one] was tested, and the IC50 (p38a/MK2; [1]) was 15.8 nM and the IC50 (p38a/PRAK) was 2510 nM.

For `Cc1cnc(-c2cccc([C@@](C)(O)CO)n2)cc1-n1c(C)cc(OCc2ncc(F)cc2F)c(Cl)c1=O` (single isomer, unassigned) [Example 36B, rel-3-chloro-4-[(3,5-difluoropyridin-2-yl)methoxy]-2′-[6-(1,2-dihydroxypropan-2-yl)pyridin-2-yl]-5′,6-dimethyl-[1,4′-bipyridin]-2-one], the IC50 (p38a/MK2; [1]) was 6.31 nM and the IC50 (p38a/PRAK) was 15800 nM.

For `Cc1cnc(-c2ccc3c(n2)[C@@H](O)CC3)cc1-n1c(C)cc(OCc2ncc(F)cc2F)c(Cl)c1=O` (single isomer, unassigned) [Example 18C], the “p38a/MK2 (10 μM) Enzyme pIC50” value (p38a/MK2; top dose 10 μM) was under 5.0 and the “p38a/PRAK Enzyme pIC50” value (p38a/PRAK) was under 3.5.

For `Cc1cc(OCc2ncc(F)cc2F)c(Cl)c(=O)n1-c1cc(-c2ccnc(C(C)(C)O)n2)ncc1C1CC1` (single isomer, unassigned) [Example 40A, rel-3-chloro-5′-cyclopropyl-4-[(3,5-difluoropyridin-2-yl)methoxy]-2′-[2-(2-hydroxypropan-2-yl)pyrimidin-4-yl]-6-methyl-[1,4′-bipyridin]-2-one], the IC50 (p38a/MK2; [1]) was 126 nM and the IC50 (p38a/PRAK) was 15800 nM.

With `Cc1cnc(-c2ccnc(C(C)(C)CO)n2)cc1-n1c(C)cc(OCc2ncc(F)cc2F)c(Cl)c1=O` (single isomer, unassigned) [Example 4B, rel-3-chloro-4-[(3,5-difluoropyridin-2-yl)methoxy]-2′-[2-(1-hydroxy-2-methylpropan-2-yl)pyrimidin-4-yl]-5′,6-dimethyl-[1,4′-bipyridin]-2-one] the IC50 (p38a/MK2; [2]) was 794 nM and the IC50 (p38a/PRAK) was over 316000 nM.

In the case of `Cc1cnc(-c2ccnc(C3(O)CCC3)n2)cc1-n1c(C)cc(OCc2ncc(F)cc2F)c(Cl)c1=O` (single isomer, unassigned) [Example 41A, rel-3-chloro-4-[(3,5-difluoropyridin-2-yl)methoxy]-2′-[2-(1-hydroxycyclobutyl)pyrimidin-4-yl]-5′,6-dimethyl-[1,4′-bipyridin]-2-one], the IC50 (p38a/MK2; [1]) was 5.01 nM and the IC50 (p38a/PRAK) was 3160 nM.

`Cc1cnc(-c2ccnc(C(O)C3CC3)n2)cc1-n1c(C)cc(OCc2ncc(F)cc2F)c(Cl)c1=O` (single isomer, unassigned) [Example 35A, rel-3-chloro-2′-{2-[cyclopropyl(hydroxy)methyl]pyrimidin-4-yl}-4-[(3,5-difluoropyridin-2-yl)methoxy]-5′,6-dimethyl-[1,4′-bipyridin]-2-one] gave an IC50 (p38a/MK2; [1]) of 50.1 nM and an IC50 (p38a/PRAK) of 10000 nM.

With `Cc1cc(OCc2ncc(F)cc2F)c(Cl)c(=O)n1-c1cc(-c2ccnc(C(C)(C)O)n2)ncc1C1CC1` (single isomer, unassigned) [Example 40B, rel-3-chloro-5′-cyclopropyl-4-[(3,5-difluoropyridin-2-yl)methoxy]-2′-[2-(2-hydroxypropan-2-yl)pyrimidin-4-yl]-6-methyl-[1,4′-bipyridin]-2-one] the IC50 (p38a/MK2; [1]) was over 1000 nM and the IC50 (p38a/PRAK) was over 316000 nM.
